# In patent publication US20230330081A1, “PHARMACEUTICAL COMPOSITION FOR TREATING TUMORS” (EISAI R&D MANAGEMENT CO., LTD., priority 2020, published 2023):
# How the values were obtained:
# Assay type in all cases: in vivo
# [1] = tested on: mouse breast cancer cell line 4T1-Luc2 AcGFP; assay: Antitumor effect in mouse breast cancer cell line (4T1-Luc2 AcGFP) graft model; conditions: BALB/c mice, anti-PD-1 antibody 0.2 mg/mouse intraperitoneal day 0, 4, 7, 11
# Description: Example 1 Antitumor effect by combination of compound A and anti-PD-1 antibody in mouse breast cancer cell line (4T1-Luc2 AcGFP) graft model
# The antitumor effect of administering compound A and anti-PD-1 antibody was evaluated in BALB/c mice (BALB/cAriNCriCrij, female, Japan Charles River) with 6 mice per group.
# The mouse breast cancer cell line 4T1 (ATCC) was seeded in a 6-well microplate (Falcon), at a cell count of 1.5×10^5 per well. The culture medium used was RPMI-1640 medium containing 10% FBS, penicillin, streptomycin and 2-mercaptoethanol (FujiFilm-Wako). The seeded cells were cultured overnight using an incubator under conditions of 5% CO2, 37° C. The culture medium was replaced on the following day.
# Vector pPBcmvIP-mcs was constructed from PB-CMV-MCS-EF1α-Puro vector (SBI; Catalog No.: PB510B-1), removing EF1-Puro and substituting 1RES-Puro. A Luc2/AcGFP fusion gene was then inserted between the pPBcinvIP-mcs CMV promoter and IRES to express Luciferase (Luc) and Green Fluorescent Protein (GFP), to obtain vector pPBcinvIP Luc2-AcGFP. During the process of constructing each vector, insertion of the separated fragments was confirmed by an established method.
# The vector pPBcrnvIP Luc2-AcGFP in 10 mM Tris-C1 (pH 8.0) and 1 mlbJ EDTA (pH 8.0) (“TE Buffer”) (1.67 μg), Super PiggyBac Transposase Expression Vector (System Biosciences, LLC) in TE Buffer (0.33 μg) and X-treamGene reagent (Roche) (8 μL) were mixed, and the mixture was adjusted to a total amount of 210 μL with Opti-MEM (Thermo Fischer Scientific). The obtained mixture was allowed to stand at room temperature for 15 minutes, and then added to the cultured 4T1 cells. The medium was exchanged and subculturing was carried out in a T75 flask, after which culturing was continued under conditions of 5% CO2, 37° C. After 4 days, culturing was carried out in 2 μg/mL puromycin-containing medium.
# Cells were selected twice with a flow cytometer, using AcGFP positivity as the marker. A mycoplasma removal reagent was added to the cells and culturing was continued for 8 days.
# Cells of the mouse breast cancer cell line 4T1-Luc2 AcGFP established by the method described above were suspended in HBSS (FujiFilm-Wako) to a concentration of 2×10^7/mL. The mixture was grafted into mammary gland fat of BALB/c (BALB/cAriNCriCrlj, female. Japan Charles River) in amounts of 0.05 mL each, and the antitumor effect was evaluated.
# On the 4th day after grafting, the long and short diameters of the tumors were measured using an electronic digital caliper (Digimatic™ caliper by Mitsutoyo Corp.), The mice were divided into groups in such a manner that the average tumor volumes were the same in each group. The tumor volumes were calculated by the following formula.
# (§1) Tumor volume (mm)=Long diameter (n)×short diameter (mm)×short diameter (mm)/2
# Compound A was dissolved in water for injection (Otsuka Pharmaceutical Factory, Inc.) to a concentration of 2.5 mg/mL. The anti-mouse PD-1 antibody (BioXcell) was diluted with PBS(−) (FujiFilm-Wako) to a concentration of 1 mg/mL. […]
# With the starting day of administration defined as day 0, the tumor volume of each mouse was measured on day 4, day 7, day 11 and day 14.
# The tumor volume on day 14 was statistically analyzed by a One-way ANOVA statistical test, or if […] was found in the test, by the Tukey-Kramer method. […]
# [2] = tested on: mouse renal cell carcinoma cell line RAG; assay: Antitumor effect in mouse renal cell carcinoma cell line (RAG) graft model
# Description: Example 2 Antitumor effect by combination of compound A and anti-PD-1 antibody in mouse renal cell carcinoma cell line (RAG) graft model
# The antitumor effect of administering compound A and anti-PD-1 antibody was evaluated in BALB/c mice (BALB/cAnNCriCrlj, female, Japan Charles River) with 10 mice per group.
# The grafted cells were pre-conditioned in BALB/c mice. The mouse renal cell carcinoma cell line RAG (ATCC) was suspended in EIBSS to a concentration of 2×10^8/mL. An equal volume of Matrigel™ matrix (Japan Becton Dickinson) was added to and thoroughly mixed with the suspension. The mixture was subcutaneously grafted on the right side of BALB/c mice (BALB/cAnNCriCrlj, female, Japan Charles River), at 0.1 mL each. After grafting, the formed tumors were extracted and finely cut. A Tumor Dissociation Kit, Mouse (Miltenyi Biotec K.K.) was then used for stirring in a GentleMACS (Miltenyi Biotec K.K.) to obtain a monocellular suspension. After passing through a 70 μm cell strainer, the cells were collected by centrifugation and cultured in medium containing 10% bovine serum.
# The mouse renal cell carcinoma cell line RAG established by this method was suspended in HBSS to a concentration of […]. The mixture was subsequently grafted onto the right side of BALB/c (BALB/cAnNCriCrij, female, Japan Charles River) in amounts of 0.1 mL each, and the antitumor effect was evaluated.
# On the 7th day after grafting, the long and short diameters of the tumors were measured using an electronic digital caliper (Digirnatic™ caliper by Mitsutoyo Corp.). The mice were divided into groups in such a manner that the average tumor volumes were the same in each group. The tumor volumes were calculated by the following formula.
# as §1
# (§2) Compound A was dissolved in water for injection (Otsuka Pharmaceutical Factory, Inc.) to a concentration of 2.5 mg/mL. The anti-mouse PD-1 antibody (BioXcell) was diluted with physiological saline (Otsuka Pharmaceutical Factory, Inc.) to a concentration of 1 mg/mL.
# Mice in the compound A administration group were given compound A by oral administration at a dose of 25 mg/kg (10 mL/kg), once per day for 7 days, Mice in the anti-PD-1 antibody administration group were intraperitoneally administered a dose of 200 lig/mouse (200 μL/mouse) on day 0 and day 3, where the starting day of administration was defined as day 0. The mice in the compound A and anti-PD-1 antibody combination group were administered both drugs in the same manner described above.
# With the starting day of administration defined as day 0, the tumor volume of each mouse was measured on day 3 and day 7, The mean tumor volumes in each group are shown in Table 2 and FIG. 2. […]
# [3] = tested on: mouse hepatocellular carcinoma cell line BNL 1 ME A.7R.1; assay: Antitumor effect in mouse hepatocellular carcinoma cell line (BNL 1 ME A.7R.1) graft model
# Description: Example 3 Antitumor effect by combination of compound A and anti-PD-1 antibody in mouse hepatocellular carcinoma cell line (BNI, 1 ME A.7R.1) graft model
# The antitumor effect of administering compound A and anti-M-1 antibody was evaluated in BALB/c mice (BALB/cAnNCriCrli, female, Japan Charles River) with 10 mice per group.
# The grafted cells were pre-conditioned in BALB/c mice, A suspension of the mouse hepatocellular carcinoma cell line line BNL 1 ME A.7R.1 (ATCC) was subcutaneously grafted onto the right side of BALB/c mice (BALB/cArtNCriCrlj, male, Japan Charles River), at 5×10^6 cells per mouse. After grafting, the formed tumors were extracted and finely cut. The mixture was then stirred with a GentleMACS (Miltenvi Biotec K.K.) to obtain a monocellular suspension. After passing through a cell strainer, the cells were collected by centrifugation and cultured.
# The mouse hepatocellular carcinoma cell line BNL 1 ME A.7R.1 established by this method was suspended in HBSS to a concentration of 1×10^8/mL. The mixture was subsequently grafted onto the right side of BALB/c (BALB/cAnNCrICrlj, female, Japan Charles River) in amounts of 0.1 mL each, and the antitumor effect was evaluated.
# On the 4th day after grafting, the long and short diameters of the tumors were measured using an electronic digital caliper (Digimaticlm caliper by Mitsutoyo Corp.). The mice were divided into groups in such a manner that the average tumor volumes were the same in each group. The tumor volumes were calculated by the following formula.
# Tumor volume […]=Long diameter (mm)×short diameter (mm)×short diameter (mm)/2
# as §2
# Mice in the compound A administration group were given compound A 1w oral administration at a dose of 25 mg/kg (10 mL/kg), once per day for 7 days. Mice in the anti-PD-1 antibody administration group were intraperitoneally administered a dose of 200 μg/mouse (200 μL/mouse) on day 0 and day 3, where the starting day of administration was defined as day 0. The mice in the compound A and anti-PD-1 antibody combination group were administered both drugs in the same manner described above.
# With the starting day of administration defined as day 0, the tumor volume of each mouse was measured on day 3 and day 7.
# The tumor volumes in the control group and in each group on day 7 were compared in Dunnett's multiple comparison test. The final significance level was as follows.
# [4] = day 7, Dunnett's multiple comparison test
smiles,measurement,setting,value
"CNC(=O)n1ccc2cc(Oc3ccnc(NC(=O)c4ccc(C5CCN(CCO)CC5)cc4)c3)c(OCCOC)cc21 [Compound A, 5-((2-(4-(1-(2-hydroxyethyl)piperidin-4-yl)benzamide)pyridin-4-yl)oxy)-6-(2-methoxyethoxy)-N-methyl-1H-indole-1-carboxamide]","mean tumor volume, Day 0","[1]; Day 0 (starting day of administration), 6 per group, compound A 25 mg/kg oral once per day for 14 days",77.3 mm^3
same,"mean tumor volume, Day 4","[1]; Day 4, compound A 25 mg/kg oral once per day",139.0 mm^3
same,"mean tumor volume, Day 7","[1]; Day 7, compound A 25 mg/kg oral once per day",131.2 mm^3
same,"mean tumor volume, Day 11","[1]; Day 11, compound A 25 mg/kg oral once per day",226.0 mm^3
same,"mean tumor volume, Day 14","[1]; Day 14, compound A 25 mg/kg oral once per day",314.6 mm^3
same,"mean tumor volume, Day 0","[2]; Day 0 (starting day of administration), BALB/c mice, 10 per group, compound A 25 mg/kg oral once per day for 7 days, anti-PD-1 antibody 200 ug/mouse intraperitoneal day 0 and 3",58.8 mm^3
same,"mean tumor volume, Day 3","[2]; Day 3, BALB/c mice, compound A 25 mg/kg oral once per day, anti-PD-1 antibody 200 ug/mouse intraperitoneal day 0 and 3",72.5 mm^3
same,"mean tumor volume, Day 7","[2]; Day 7, BALB/c mice, compound A 25 mg/kg oral once per day, anti-PD-1 antibody 200 ug/mouse intraperitoneal day 0 and 3",107.5 mm^3
same,difference in tumor volume between the control group and the treatment group,[2]; [4],No statistically significant difference
same,"mean tumor volume, Day 0","[3]; Day 0 (starting day of administration), BALB/c mice, 10 per group, compound A 25 mg/kg oral once per day for 7 days, anti-PD-1 antibody 200 μg/mouse intraperitoneal day 0 and 3",109.0 mm^3
same,"mean tumor volume, Day 3","[3]; Day 3, BALB/c mice, compound A 25 mg/kg oral once per day, anti-PD-1 antibody 200 μg/mouse intraperitoneal day 0 and 3",223.6 mm^3
same,"mean tumor volume, Day 7","[3]; Day 7, BALB/c mice, compound A 25 mg/kg oral once per day, anti-PD-1 antibody 200 μg/mouse intraperitoneal day 0 and 3",221.4 mm^3
same,difference in tumor volume between the control group and the treatment group,[3]; [4],No statistically significant difference
